Test results taken from BindingDB's records for doi:10.1124/jpet.103.062398 (Institut De Recherches Servier, 2004).
pKi: −log10 of the molar value. Values joined by “and” are separate entries in the source; they are usually repeats but may differ in a detail not shown here. Equal entries are not always repeated.

Tests used:
[1] = molecular target: D(2) dopamine receptor (Rattus norvegicus, UniProt P61169)
[2] = molecular target: 5-hydroxytryptamine receptor 5A (Homo sapiens, UniProt P47898)
[3] = molecular target: Alpha-1A adrenergic receptor (Rattus norvegicus, UniProt P43140)
Chain of Alpha-1A adrenergic receptor (Rattus norvegicus, UniProt P43140) (P43140 whole entry): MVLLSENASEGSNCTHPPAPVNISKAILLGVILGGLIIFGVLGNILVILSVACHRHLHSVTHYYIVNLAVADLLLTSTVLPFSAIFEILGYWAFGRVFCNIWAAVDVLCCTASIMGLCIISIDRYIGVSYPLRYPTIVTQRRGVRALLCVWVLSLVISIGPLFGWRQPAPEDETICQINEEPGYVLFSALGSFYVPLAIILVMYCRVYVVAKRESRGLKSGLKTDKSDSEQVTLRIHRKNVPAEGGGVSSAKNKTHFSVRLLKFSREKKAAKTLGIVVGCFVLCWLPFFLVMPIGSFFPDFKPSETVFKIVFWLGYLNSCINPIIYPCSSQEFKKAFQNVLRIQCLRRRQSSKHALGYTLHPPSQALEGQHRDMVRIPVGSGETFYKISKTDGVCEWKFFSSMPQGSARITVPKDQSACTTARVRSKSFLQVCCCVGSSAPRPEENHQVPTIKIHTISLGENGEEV

[4] = molecular target: 5-hydroxytryptamine receptor 4 (Cavia porcellus, UniProt O70528)
Chain of 5-hydroxytryptamine receptor 4 (O70528 whole entry): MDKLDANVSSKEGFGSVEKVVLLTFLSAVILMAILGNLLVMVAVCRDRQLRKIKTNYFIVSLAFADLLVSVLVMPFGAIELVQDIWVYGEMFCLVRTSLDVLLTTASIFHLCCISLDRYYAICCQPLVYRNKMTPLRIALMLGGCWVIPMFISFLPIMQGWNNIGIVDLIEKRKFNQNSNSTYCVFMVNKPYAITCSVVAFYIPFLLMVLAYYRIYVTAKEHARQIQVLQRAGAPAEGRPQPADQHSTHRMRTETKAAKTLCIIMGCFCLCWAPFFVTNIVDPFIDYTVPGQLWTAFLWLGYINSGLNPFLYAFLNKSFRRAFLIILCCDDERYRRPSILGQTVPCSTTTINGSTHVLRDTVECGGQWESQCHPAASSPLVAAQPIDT

[5] = molecular target: 5-hydroxytryptamine receptor 3A (Mus musculus, UniProt P23979)
Chain of 5-hydroxytryptamine receptor 3A (P23979 as listed by the source): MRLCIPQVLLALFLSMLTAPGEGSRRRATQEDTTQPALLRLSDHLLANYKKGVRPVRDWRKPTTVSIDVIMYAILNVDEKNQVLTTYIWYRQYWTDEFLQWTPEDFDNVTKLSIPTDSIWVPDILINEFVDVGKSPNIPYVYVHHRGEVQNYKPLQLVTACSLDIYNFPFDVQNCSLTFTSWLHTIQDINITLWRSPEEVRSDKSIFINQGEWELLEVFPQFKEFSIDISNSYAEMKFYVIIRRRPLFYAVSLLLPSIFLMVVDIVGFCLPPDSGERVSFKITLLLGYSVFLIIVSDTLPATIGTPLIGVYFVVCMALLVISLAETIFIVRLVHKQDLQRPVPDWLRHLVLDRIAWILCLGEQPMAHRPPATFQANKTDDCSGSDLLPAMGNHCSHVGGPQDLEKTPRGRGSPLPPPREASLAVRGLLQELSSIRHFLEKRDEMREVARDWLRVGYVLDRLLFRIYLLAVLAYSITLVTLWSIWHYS

[6] = molecular target: 5-hydroxytryptamine receptor 6 (Homo sapiens, UniProt P50406)
Chain of 5-hydroxytryptamine receptor 6 (P50406 whole entry): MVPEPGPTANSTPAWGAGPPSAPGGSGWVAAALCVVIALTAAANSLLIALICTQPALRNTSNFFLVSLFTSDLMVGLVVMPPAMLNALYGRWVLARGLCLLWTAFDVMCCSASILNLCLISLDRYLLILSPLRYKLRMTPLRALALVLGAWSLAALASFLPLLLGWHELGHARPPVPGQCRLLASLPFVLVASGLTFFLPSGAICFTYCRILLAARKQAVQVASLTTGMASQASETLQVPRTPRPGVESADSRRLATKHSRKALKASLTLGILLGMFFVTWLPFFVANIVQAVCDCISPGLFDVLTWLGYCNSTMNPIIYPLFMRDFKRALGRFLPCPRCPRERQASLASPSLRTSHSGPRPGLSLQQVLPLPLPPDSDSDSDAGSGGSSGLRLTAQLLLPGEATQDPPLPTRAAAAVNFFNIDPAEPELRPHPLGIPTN

[7] = molecular target: 5-hydroxytryptamine receptor 7 (Homo sapiens, UniProt P34969)
Chain of 5-hydroxytryptamine receptor 7 (P34969 whole entry): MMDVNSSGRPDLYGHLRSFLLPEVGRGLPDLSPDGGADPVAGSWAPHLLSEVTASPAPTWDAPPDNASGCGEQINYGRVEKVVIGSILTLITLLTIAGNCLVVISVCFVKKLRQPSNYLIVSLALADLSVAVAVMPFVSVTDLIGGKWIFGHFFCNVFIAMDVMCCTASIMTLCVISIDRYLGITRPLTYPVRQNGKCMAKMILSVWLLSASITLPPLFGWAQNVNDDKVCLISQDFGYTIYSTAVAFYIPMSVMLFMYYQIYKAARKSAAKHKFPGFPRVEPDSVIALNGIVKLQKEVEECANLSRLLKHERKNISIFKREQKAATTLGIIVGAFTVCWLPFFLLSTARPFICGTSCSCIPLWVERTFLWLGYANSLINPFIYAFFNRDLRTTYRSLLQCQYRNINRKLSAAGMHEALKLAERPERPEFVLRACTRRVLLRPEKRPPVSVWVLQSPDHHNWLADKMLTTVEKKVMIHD

[8] = molecular target: 5-hydroxytryptamine receptor 2B (Homo sapiens, UniProt P41595)
[9] = molecular target: Alpha-2C adrenergic receptor (Homo sapiens, UniProt P18825)
[10] = molecular target: 5-hydroxytryptamine receptor 1B (Homo sapiens, UniProt P28222)
[11] = molecular target: Alpha-1B adrenergic receptor (Homo sapiens, UniProt P35368)
[12] = molecular target: Alpha-1D adrenergic receptor (Homo sapiens, UniProt P25100)
[13] = molecular target: Alpha-2A adrenergic receptor (Homo sapiens, UniProt P08913)
[14] = molecular target: 5-hydroxytryptamine receptor 1D (Homo sapiens, UniProt P28221)
[15] = molecular target: 5-hydroxytryptamine receptor 1A (Homo sapiens, UniProt P08908)
[16] = molecular target: Alpha-2B adrenergic receptor (Homo sapiens, UniProt P18089)
[17] = molecular target: Alpha-1A adrenergic receptor (Homo sapiens, UniProt P35348)
Chain of Alpha-1A adrenergic receptor (Homo sapiens, UniProt P35348) (P35348 whole entry): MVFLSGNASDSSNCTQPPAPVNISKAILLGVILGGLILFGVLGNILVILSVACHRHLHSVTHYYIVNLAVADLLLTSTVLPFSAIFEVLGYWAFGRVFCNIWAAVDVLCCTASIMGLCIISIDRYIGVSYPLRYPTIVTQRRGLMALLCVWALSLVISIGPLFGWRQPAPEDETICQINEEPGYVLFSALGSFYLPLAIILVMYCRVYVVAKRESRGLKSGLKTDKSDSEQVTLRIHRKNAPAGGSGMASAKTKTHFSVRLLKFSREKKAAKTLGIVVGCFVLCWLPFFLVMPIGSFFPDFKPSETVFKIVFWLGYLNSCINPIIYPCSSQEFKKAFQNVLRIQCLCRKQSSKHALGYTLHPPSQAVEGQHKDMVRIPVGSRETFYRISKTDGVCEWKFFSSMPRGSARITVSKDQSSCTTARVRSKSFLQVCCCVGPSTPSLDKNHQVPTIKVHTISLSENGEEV

[18] = molecular target: T1, Alpha-2A adrenergic receptor [16-465] (Rattus norvegicus, UniProt P22909)
T1 construct: 16-465

[19] = molecular target: D(3) dopamine receptor (Homo sapiens, UniProt P35462)
Chain of D(3) dopamine receptor (P35462 as listed by the source): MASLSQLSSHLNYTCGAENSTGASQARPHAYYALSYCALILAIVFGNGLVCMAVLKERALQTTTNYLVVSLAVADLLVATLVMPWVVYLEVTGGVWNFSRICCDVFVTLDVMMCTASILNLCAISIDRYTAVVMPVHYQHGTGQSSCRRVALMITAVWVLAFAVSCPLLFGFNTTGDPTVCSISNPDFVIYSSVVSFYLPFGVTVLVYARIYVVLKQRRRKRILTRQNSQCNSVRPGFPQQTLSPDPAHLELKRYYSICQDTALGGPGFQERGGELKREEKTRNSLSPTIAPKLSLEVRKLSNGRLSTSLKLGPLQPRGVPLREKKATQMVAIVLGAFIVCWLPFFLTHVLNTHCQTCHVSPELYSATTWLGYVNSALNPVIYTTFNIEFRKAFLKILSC

[20] = molecular target: 5-hydroxytryptamine receptor 2A (Homo sapiens, UniProt P28223)
[21] = molecular target: 5-hydroxytryptamine receptor 2C (Homo sapiens, UniProt P28335)
[22] = molecular target: D(2) dopamine receptor (Homo sapiens, UniProt P14416)
Chain of D(2) dopamine receptor (Homo sapiens, UniProt P14416) (P14416 whole entry): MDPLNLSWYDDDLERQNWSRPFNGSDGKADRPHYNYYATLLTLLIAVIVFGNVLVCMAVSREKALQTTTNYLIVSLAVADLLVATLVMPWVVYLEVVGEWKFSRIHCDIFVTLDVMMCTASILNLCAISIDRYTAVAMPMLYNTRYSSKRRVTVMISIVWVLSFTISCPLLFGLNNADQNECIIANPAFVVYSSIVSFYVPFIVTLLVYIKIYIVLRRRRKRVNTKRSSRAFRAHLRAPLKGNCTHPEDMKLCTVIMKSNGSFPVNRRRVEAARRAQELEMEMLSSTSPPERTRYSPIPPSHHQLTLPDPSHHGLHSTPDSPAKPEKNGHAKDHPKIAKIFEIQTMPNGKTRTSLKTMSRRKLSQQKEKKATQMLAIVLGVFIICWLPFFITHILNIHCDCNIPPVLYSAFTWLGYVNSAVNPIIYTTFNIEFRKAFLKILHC

[23] = molecular target: D(4) dopamine receptor (Homo sapiens, UniProt P21917)
Chain of D(4) dopamine receptor (P21917 whole entry): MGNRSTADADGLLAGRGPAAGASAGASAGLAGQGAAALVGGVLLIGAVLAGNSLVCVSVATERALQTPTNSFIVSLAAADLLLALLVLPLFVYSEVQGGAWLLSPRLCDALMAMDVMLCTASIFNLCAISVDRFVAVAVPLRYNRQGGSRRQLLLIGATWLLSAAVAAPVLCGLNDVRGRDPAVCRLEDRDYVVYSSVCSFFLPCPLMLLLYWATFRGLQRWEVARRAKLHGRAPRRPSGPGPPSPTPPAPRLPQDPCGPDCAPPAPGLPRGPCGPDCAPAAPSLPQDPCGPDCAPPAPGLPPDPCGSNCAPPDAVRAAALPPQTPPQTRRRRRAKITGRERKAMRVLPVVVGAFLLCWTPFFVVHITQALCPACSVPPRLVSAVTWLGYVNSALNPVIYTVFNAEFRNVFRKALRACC

Chain of 5-hydroxytryptamine receptor 5A (P47898 whole entry): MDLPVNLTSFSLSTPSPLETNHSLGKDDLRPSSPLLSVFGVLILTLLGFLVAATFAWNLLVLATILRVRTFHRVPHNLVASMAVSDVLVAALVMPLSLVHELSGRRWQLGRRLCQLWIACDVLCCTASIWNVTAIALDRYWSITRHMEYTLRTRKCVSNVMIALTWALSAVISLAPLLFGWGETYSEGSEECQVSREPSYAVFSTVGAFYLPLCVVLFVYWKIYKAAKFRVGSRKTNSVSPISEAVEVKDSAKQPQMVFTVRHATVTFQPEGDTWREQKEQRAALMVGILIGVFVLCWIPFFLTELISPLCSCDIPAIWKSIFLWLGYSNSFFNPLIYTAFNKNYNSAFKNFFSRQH
Chain of D(2) dopamine receptor (Rattus norvegicus, UniProt P61169) (P61169 whole entry): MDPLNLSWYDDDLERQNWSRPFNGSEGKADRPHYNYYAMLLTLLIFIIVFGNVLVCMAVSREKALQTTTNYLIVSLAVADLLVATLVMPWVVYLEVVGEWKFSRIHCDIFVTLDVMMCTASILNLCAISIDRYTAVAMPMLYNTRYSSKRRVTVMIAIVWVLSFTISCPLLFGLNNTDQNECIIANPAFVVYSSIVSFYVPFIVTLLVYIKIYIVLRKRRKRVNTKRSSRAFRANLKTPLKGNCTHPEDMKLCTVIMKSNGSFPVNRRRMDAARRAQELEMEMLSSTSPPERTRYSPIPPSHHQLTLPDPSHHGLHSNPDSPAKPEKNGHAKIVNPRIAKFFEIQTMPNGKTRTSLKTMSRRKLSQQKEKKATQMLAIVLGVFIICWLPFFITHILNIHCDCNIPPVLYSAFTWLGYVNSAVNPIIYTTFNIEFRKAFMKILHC

Row | SMILES | pKi [1] | pKi [2] | pKi [3] | pKi [4] | pKi [5] | pKi [6] | pKi [7] | pKi [19] | pKi [22] | other results
1 | CCCN(CCC)CCc1cccc2c1CC(=O)N2 | 5.94 | < 5.00 | < 5.00 | < 5.00 | < 5.00 | < 5.00 | 5.82 |  |  | 
2 | CCCN1CCOC2c3cc(C(N)=O)ccc3CCC21 (stereo not drawn) [S32504] |  | < 5.00 | < 5.00 | < 5.00 | < 5.00 | < 5.00 | 6.18 | 8.05 |  | pKi [8]: 5.34; pKi [9]: < 5.00; pKi [10]: < 5.00; pKi [11]: < 5.00; pKi [12]: < 5.00; pKi [13]: 5.09; pKi [14]: 6.58; pKi [15]: 6.59; pKi [16]: 5.78; pKi [17]: < 5.00; pKi [18]: < 5.00; pKi [20]: 5.28; pKi [21]: < 5.00
3 | N#Cc1ccc2c(c1)[C@H]1CN(CCCCNC(=O)c3ccc(-c4ccccc4)cc3)C[C@@H]1CO2 [S33084] |  |  |  |  |  |  |  | 9.59 | 7.53 | 
4 | CCCN1CCO[C@@H]2c3cc(C(N)=O)ccc3CC[C@H]21 [S32504 (+)] | 6.34 |  |  |  |  |  |  | 8.05 | 6.29 and 6.45 | pKi [23]: 5.29
